From ChEMBL document CHEMBL1157539, “Thousands of chemical starting points for antimalarial lead identification” (Nature, 2010)

System: Plasmodium falciparum
Assay: GSK_TCMDC: Inhibition of Plasmodium falciparum 3D7 in whole erythrocytes, using parasite LDH activity as an index of growth.
Assay type: functional, organism-based
Conditions: Plasmodium falciparum, 3D7

Row | SMILES | XC50 [nM]
1 | O=C(/C=C/c1ccc(Cl)c(Cl)c1)NCCCCN1CCC(c2c[nH]c3ccccc23)CC1 | 859
2 | O=C(NCc1ccc(C(=O)NCc2cccc3ccccc23)cc1)c1ccc(O)c(-c2ccc(Cl)c(Cl)c2)c1 | 814
3 | CN1CCCN(Cc2ccc(-c3cccc(NC(=O)c4cccc(Cl)c4)c3)cc2)CC1 | 837
4 | CC1CN(Cc2ccccc2)CCN1c1ccc(NC(=O)c2ccc(F)cc2)cc1 (stereo not drawn) | 1010
5 | Cc1nc(-c2nc(N3CCC(C(N)=O)CC3)ncc2-c2ccsc2)sc1C | 902
6 | Cc1cc(O)c2c3c1C(=O)C=C1C3c3c(c(O)cc(O)c3C(=O)C1(C)C)C2=O (stereo not drawn) | 1680
7 | CN1CCN(CC(=O)Nc2cccc(-c3ccc(-c4nc5cc(F)ccc5[nH]4)s3)c2)CC1 | 679
8 | N=C(N)NCC=C(c1ccccc1)c1ccccc1 | 989
9 | Fc1ccc2[nH]c(-c3ccc(-c4ccc(CN5CCN(CCN6CCOCC6)CC5)cc4)s3)nc2c1 | 147
10 | O=C(Nc1ccccc1)N(Cc1ccc(-c2ccc(CNCc3ccc4c(c3)OCO4)cc2)cc1)C1CCN(Cc2ccccc2)CC1 | 570
11 | CN(C)CCCOc1ccc(CNCc2cccc(Oc3ccc(Cl)cc3)c2)cc1 | 824
12 | Fc1ccc(-c2csc3ncnc(Cl)c23)cc1 | 331
13 | O=C(/C=C/c1ccc(Cl)c(Cl)c1)NCCCCCN1CCCC(CNC(=O)/C=C/c2ccccc2)C1 (stereo not drawn) | 791
14 | COc1ccc(O)c(CN2CCN(c3cc(C)ccc3C)CC2)c1 | 1010
15 | Cc1nc(C)c(-c2ccc(Oc3ccc(Cl)c(Cl)c3)cc2)c(O)c1Cl | 106
16 | NCC(=O)NC12CC3CC(CC(C3)C1)C2 | 1200
17 | CN(C)CCNCc1ccc(-c2ccc(-c3nc4ccccc4[nH]3)s2)cc1 | 569
18 | NC(=O)Nc1ccc2c(Nc3ccc(OCc4ccccc4)cc3)ncnc2c1 | 1260
19 | CC1(C)NC(=N)NC(=N)N1OCC=Cc1ccccc1 | 4.24
20 | CC(C)(C)CCOC(=O)N1CCc2c(cc(O)c(O)c2Cl)C(c2ccc(O)cc2)C1 (stereo not drawn) | 752
21 | CCNc1cc(C(=O)N[C@@H](Cc2ccccc2)[C@H](O)CNCCC(C)(C)C)c(F)c(N2CCCCS2(=O)=O)c1 | 797
22 | Cc1ccc(Cc2c(N)nc3nc(N)nc(N)c3c2C)cc1 | 188
23 | COc1cc(C(=O)NCCCN2CCN(c3cccc(Cl)c3)CC2)ccc1-c1cc2cc(Cl)c(Cl)cc2[nH]1 | 468
24 | Cc1cc(NC(=O)c2cccs2)ccc1OC1CCN(Cc2ccc(C#N)cc2)CC1 | 721
25 | COc1ccc(-n2ccnc2)cc1CNC1CCN(CC2Cn3c(=O)ccc4ccc(F)c2c43)CC1 (stereo not drawn) | 927

Row | SMILES | XC50 [nM]
26 | COc1ccc(N2CCN(CCCCNC(=O)c3ccc(NC(=O)c4cc(Cl)cc(Cl)c4)cc3)CC2)c(OC)c1 | 299
27 | O=C(Nc1c(F)cccc1F)c1cccc(-c2nn3ccccc3c2-c2ccnc(Nc3cccc(-c4cnco4)c3)n2)c1 | 361
28 | CC(=O)Nc1ccc(OCCCN(Cc2ccccc2OC(F)(F)F)c2ccc(C(F)(F)F)c(C#N)c2)c(Cl)c1 | 813
29 | c1ccc(-c2nnc(-c3ccccn3)nc2NC2CCCCC2)cc1 | 910
30 | CC(C)(C)OC(=O)c1c(NC(=O)/C=C/c2ccc(O)c(O)c2)sc2c1CCCC2 | 819
31 | COc1cccc(C(=O)N2CCOC(CCN3CCC(c4ccccc4)CC3)(c3ccc(Cl)c(Cl)c3)C2)c1 (stereo not drawn) | 505
32 | COc1ccc(OC)c(-c2ccc(O)c(CNCC(C)c3ccccc3)c2)c1 (stereo not drawn) | 933
33 | CC(CN(C)C)C(=O)Nc1cccc(-c2ccc(-c3nc4cc(C(F)(F)F)ccc4[nH]3)cc2)c1 (stereo not drawn) | 248
34 | OCC1CCN(Cc2cccc(-c3ccc(-c4nc5cc(C(F)(F)F)ccc5[nH]4)s3)c2)CC1 | 588
35 | CC(C)(C)c1ccc(CNCC(C)(C)c2nc(-c3ccnc(N)n3)c(-c3ccc(Cl)c(O)c3)[nH]2)cc1 | 697
36 | Cc1cccc2nc(-c3cccc(-c4cccc(NC(=O)NCc5cccc(F)c5)c4)c3)[nH]c12 | 453
37 | CCCNCc1ccc(-c2ccc(CN(C(=O)c3nn(-c4ccccc4)nc3C)C(C)CN(C)C)cc2)nc1 (stereo not drawn) | 923
38 | O=C(Nc1cccnc1)c1cc(-c2cccnc2)nc2ccc(Cl)cc12 | 1060
39 | O=S(=O)(NCCN1CCCC1)c1ccc(-c2ccc(CNC3Cc4ccccc4C3)cc2)cc1F | 999
40 | CCOc1cc(Cl)c(C(C)NC(=O)c2cccc(OC)c2)cc1OCC (stereo not drawn) | 956
41 | CCCCNc1ccc(C(=O)NC2CCN(C[C@H](O)c3ccnc4ccc(OC)cc34)CC2)cc1 | 442
42 | COc1cc2nc(NCC3CCCCC3)nc(NCc3ccccc3)c2cc1OC | 142
43 | CN1CCCc2ccc(NC(=O)c3cc(-c4ccc(Cl)cc4)cs3)cc2C1 | 793
44 | Cc1nc(-c2nc(NCc3ccccn3)ncc2-c2ccsc2)sc1C | 559
45 | COc1ccc2c(NN=Cc3ccc(Cl)cc3)ccnc2c1 | 865
46 | CCCNCc1ccc(-c2ccc(CN(CCOC)C(=O)CCc3ccc(OC)cc3)cc2)nc1 | 981
47 | CCCNCCc1ccc(NS(=O)(=O)c2cccc(-c3ccc(Cl)cc3)c2)cc1 | 975
48 | CN(C)CCCNc1ncnc2c1[nH]c1ccc(Cl)cc12 | 279
49 | Cc1ccc(C2(C)CC(C)(C)N(C(=O)COc3ccc4ccccc4c3)c3ccccc32)cc1 (stereo not drawn) | 113
50 | Cc1[nH]c2ccccc2c1C=NNc1nc(=Nc2ccccc2)[nH]c(=Nc2ccccc2)[nH]1 | 926

Row | SMILES | XC50 [nM]
51 | O=C(N[C@@H](Cc1ccccc1)C(=O)NCCN1CCOCC1)c1ccc(O)c(-c2ccc(Cl)c(Cl)c2)c1 | 921
52 | O=C(Nc1ccc(Oc2cccnc2)cc1)C1CCN(Cc2cc(Cl)ccc2O)CC1 | 1350
53 | CN(C)CCNC(=O)c1cc2c(-c3ccc(Cl)cc3)nn(C)c2s1 | 665
54 | COc1nc2c(CCN3CCC(NCc4ccc5c(n4)NC(=O)CO5)CC3)c(Cl)cnc2cc1F | 418
55 | Cc1cc(N)c2cc(NC(=O)c3cccc(C(=O)Nc4ccc5nc(C)cc(N)c5c4)c3)ccc2n1 | 256
56 | Nc1nc(N)c2c(CCc3ccc(Cl)c(Cl)c3)cccc2n1 | 669
57 | Cc1cccc2nc(-c3cccc(-c4ccc(NC(=O)CCc5c[nH]cn5)cc4)c3)[nH]c12 | 302
58 | CC(Oc1ccc(Cl)cc1)C(=O)Nc1cc(C(F)(F)F)ccc1-n1cncn1 (stereo not drawn) | 151
59 | CNCCNCc1cccc(-c2ccc(-c3nc4ccccc4[nH]3)s2)c1 | 830
60 | Cc1ccc(S(=O)(=O)n2nccc2-c2c(-c3ccc(Cl)cc3)noc2C)cc1 | 809
61 | CCCC(C)N(Cc1ccc(C(C)(C)C)cc1)C(=O)c1cccc(C#N)c1 (stereo not drawn) | 1050
62 | CCCOc1ccccc1-c1nc2[nH]c3c(c2c(=O)[nH]1)CCN(C)C3 | 367
63 | Cc1[nH]c(C)c(-c2ccc(CCc3cccc(C(F)(F)F)c3)nc2)c(=O)c1Cl | 101
64 | COc1ccc(C(=O)CCC(=O)N(CCC2CCCN2C)Cc2ccc(-c3ccc(CNCCc4ccc(S(C)(=O)=O)cc4)cn3)cc2)cc1F (stereo not drawn) | 874
65 | O=[N+]([O-])c1ccc(-c2ccc(C=NNc3nc(Nc4ccccc4)nc(Nc4ccccc4)n3)o2)cc1 | 1430
66 | Cc1cc(N(C)C)nc(Nc2ccc(NC(=O)COc3ccccc3)cc2)n1 | 1760
67 | COCCOc1nc(N)nc2ncc(Cc3cc(OC)ccc3OC)c(C)c12 | 426
68 | CC(C)C[C@H](Nc1ccnc(NCC2CCCCC2)n1)C(=O)Nc1ccccc1 | 1430
69 | CCc1ccc(Cc2cnc3nc(N)nc(N)c3c2C)cc1CC | 285
70 | CC(C)CN1CCCN(Cc2cccc(NC(=O)c3ccc(-c4ccccc4)cc3)c2)CC1 | 883
71 | Cc1nc(N)nc(N)c1C#CC1CCCC1 | 768
72 | COc1cc2nc(N(C)C)nc(Nc3ccc4c(cnn4Cc4ccccc4)c3)c2cc1OC | 44
73 | CC(=O)c1cccc(NC(=O)c2ccc(Cl)c(S(=O)(=O)N3CCc4ccccc43)c2)c1 | 1640
74 | COc1ccc(-c2cccc(NC(=O)c3ccc(Cl)cc3)c2)cc1CN1CCNCC1 | 840
75 | CCCC(C)c1ccc(N2C(N)=NC(N)=NC2(C)C)cc1 (stereo not drawn) | 6.27

Row | SMILES | XC50 [nM]
76 | O=c1cc(NCCCNCc2cccc(OC(F)(F)F)c2)[nH]c2ccccc12 | 854
77 | COc1ccc(CN(C)CCOc2ccc(NC(=O)c3cccc4c(=O)c5cc(SC)ccc5[nH]c34)cc2)cc1OC | 877
78 | CCc1cn(C)c2c(N3CCCC3=O)cc(C(=O)N[C@@H](Cc3ccccc3)[C@H](O)CNC(C)(C)c3cccc(OC)c3)cc12 | 36
79 | O=C(Nc1cccc(-c2cccc(-c3nc4cc(F)ccc4[nH]3)c2)c1)Nc1ccc2c(c1)OCO2 | 137
80 | CCOC(=O)c1ccc(-n2c(C)cc(C=C3SC(=Nc4ccccc4)N(C4CCCC4)C3=O)c2C)cc1 | 1170
81 | CCOc1ccc2nc3cc(N)ccc3c(N)c2c1 | 527
82 | O=C(Nc1ccc(C(=O)OCC(c2ccccc2)c2ccccc2)cc1)N[C@@H](Cc1ccc(O)cc1)C(=O)NC1CCN(Cc2ccc(O)cc2)C1 (stereo partly drawn) | 782
83 | CCc1c(C)nc(-n2nc(C)cc2NC(=O)CC(c2ccccc2)c2ccccc2)[nH]c1=O | 652
84 | CC(C)(C)c1ccc(CN2CCC(CNC(=O)c3cc(-c4ccccc4)nc4ccccc34)CC2)cc1 | 1020
85 | CC1CCN(C(=O)C(Cc2c[nH]c3ccccc23)NS(=O)(=O)c2ccc(Cl)cc2)CC1 (stereo not drawn) | 717
86 | CN1CCN(c2ccnc3ccc(NC(=O)Nc4ccc5c(c4)CCC5=O)cc23)CC1 | 330
87 | Cc1cc(NC(=O)[C@H](CC(C)C)Nc2ccc(C#N)c3ccccc23)ccc1F | 777
88 | COc1ccc(NC(=O)c2ccc(Br)c(C)c2)cc1N1CCN(CCCc2c[nH]c3ccccc23)CC1 | 382
89 | Cc1ccc(-c2cc(C(=O)Nc3ccc(S(=O)(=O)N4CCCC(C)C4)cc3)[nH]n2)c(O)c1 (stereo not drawn) | 280
90 | CN1CCN(c2cccc(-c3nnc(-c4ccc(OCC(=O)NCc5ccc(C(F)(F)F)cc5)c([N+](=O)[O-])c4)o3)c2)CC1 | 661
91 | COc1ccccc1NC(=O)CSc1nc2cccnc2n1-c1ccccc1OC | 362
92 | CCCCOC(C(=O)OCC1CCCN1C)(c1ccccc1)c1ccccc1 (stereo not drawn) | 786
93 | Oc1cc(Nc2ccnc3cc(-c4ccc(CN5CCCCC5)o4)c(Cl)cc23)c(Cl)cc1F | 1260
94 | Cc1ccccc1C1CCN(C2CCC(NC(=O)c3cc(-c4ccc(Cl)cc4)cs3)CC2)CC1 (stereo not drawn) | 158
95 | c1ccc(-c2cccnn2)cc1 | 910
96 | Fc1ccc2[nH]c(-c3cccc(-c4ccc(CNCc5ccccc5)cc4)c3)nc2c1 | 266
97 | O=C(/C=C/c1ccc(Cl)c(Cl)c1)N1CCC(NCc2ccc3[nH]ccc3c2)CC1 | 1020
98 | O=S(=O)(c1ccccc1Cl)N1CCCCC(c2ccc(C(F)(F)F)cc2)=N1 | 942
